Patent US20080255252A1, “Infectious Aetiology of Prostatic Disease and Methods to Identify Causative Agents” (Tissugen Pty. Ltd., priority 2004, published 2008)

Tested on: P. acnes Group 1, 2 and 3 isolates
Assay: Growth of P. acnes isolates on semi-selective Brain Heart Infusion agar containing antibiotics
Assay type: cell-based, Propionibacterium acnes
Method: Brain Heart Infusion Agar (Oxoid Australia Ltd) was prepared containing 0.5% Tween 80 and adjusted to a pH of 6.0 using hydrochloric acid prior to autoclaving. […] Both antibiotics were prepared freshly immediately prior to use, and the agar plates were incubated at 37° C. for 24 hrs to ensure sterility then stored at 4° C. and used within 3 weeks of preparation.
Inclusion of gentamicin as a selective agent and Tween 80 as a growth stimulant for P. acnes was previously discussed by Kishishita (1980).

With gentamicin the “growth of some strains of P. acnes Groups 2 and 3” value (at 6 μg/mL furazolidone and 4 μg/mL gentamicin in the semi-selective medium) was “noticeable growth inhibition” and the “maximal concentration that allowed reasonable growth” value (semi-selective agar, after 7 days of anaerobic incubation) was 4 µg/mL.
